Measured values reported in patent US20250282715A1, “SOLID STATE FORMS OF MIRDAMETINIB AND PROCESS FOR PREPARATION THEREOF” (Assia Chemical Industries Ltd., priority 2022, published 2025).

Legend:
Format in all cases: physicochemical
[1] = Stability to compression (2 tons, XRPD analysis); conditions: pressure of 2 tons for 2 minutes, hydraulic press
Description: (§1) A sample, after being powdered in a mortar and pestle, is applied directly on a silicon plate holder. The X-ray powder diffraction pattern was measured with Philips X'Pert PRO X-ray powder diffractometer, equipped with Cu irradiation source=1.54184 Å (Ångström), X'Celerator (2.022° 20) detector. Scanning parameters: angle range: 3-40 deg., step size 0.0167, time per step 37 s, continuous scan.
A sample of Mirdametinib oxalic acid co-crystal Form A was subjected to a pressure of 2 tons for 2 minutes (Atlas® Autopress hydraulic press, set to 2 tons).

[2] = Thermal stability (oven heating, XRPD analysis); conditions: heated in an oven at 100° C. for 30 minutes
Description: as §1
Samples of Mirdametinib oxalic acid co-crystal Form A (100 mg) and Form IV were heated in an oven at 100° C. for 30 minutes.

[3] = Hygroscopicity (water absorption at up to 90% RH); conditions: about 25° C.

Compound | Stability to compression: XRPD analysis after mechanical stress [1] | XRPD after heating [2] | XRPD after heating ([2]; listed as Mirdametinib oxalic acid co-crystal Form A) | Hygroscopicity / water absorption [3]
O=C(NOC[C@H](O)CO)c1ccc(F)c(F)c1Nc1ccc(I)cc1F.O=C(O)C(=O)O | resistant to amorphization | Form A | no conversion to other polymorph forms | little or no water absorption
O=C(NOC[C@H](O)CO)c1ccc(F)c(F)c1Nc1ccc(I)cc1F [Mirdametinib form IV, N-[(2R)-2,3-dihydroxypropoxyl]-3,4-difluoro-2-[(2-fluoro-4-iodophenyl)amino]benzamide, reference compound] |  | form IV + form I |  | 
